For 2 compounds, Hill coefficient results are on record in ChEMBL document CHEMBL1130498, “Synthesis of conformationally constrained analogues of BRL-32872. Determination of stereochemistry and related pharmacological properties” (Bioorg Med Chem Lett, 1997).

A short description of this experiment: Hill coefficient was evaluated.

Several values for one entry are separate records, joined by “and”; a condition that tells them apart may be missing. Equal values may be shown once.

`COc1ccc(CCN2C3CC[C@@H]2[C@@H](N(C(=O)c2ccc([N+](=O)[O-])cc2)c2ccc(OC)c(OC)c2)C3)cc1OC`: the Hill coefficient is 1.01 and 1.18.

With `COc1ccc(CCN2C3CC[C@@H]2[C@H](N(C(=O)c2ccc([N+](=O)[O-])cc2)c2ccc(OC)c(OC)c2)C3)cc1OC`, the Hill coefficient is 1.37 and 0.93.
